This note sets out measurements from patent publication US9126985B2, “Tetra- and pentasubstituted benzimidazolium compounds” (Boehringer Ingelheim International GmbH, priority 2013, dated 2015).

Data set [1] deals with T1, ENaC (Epithelial Sodium Channel) (Mus musculus, UniProt Q61180+Q9WU38+Q9WU39).
T1 construct: Mouse kidney M-1 cells were cultivated in DMEM containing 5% FCS and 5 μM dexamethasone; endogenous in cells; host or cells: mouse kidney M-1 cells
T1 sequence (Q61180 1-699): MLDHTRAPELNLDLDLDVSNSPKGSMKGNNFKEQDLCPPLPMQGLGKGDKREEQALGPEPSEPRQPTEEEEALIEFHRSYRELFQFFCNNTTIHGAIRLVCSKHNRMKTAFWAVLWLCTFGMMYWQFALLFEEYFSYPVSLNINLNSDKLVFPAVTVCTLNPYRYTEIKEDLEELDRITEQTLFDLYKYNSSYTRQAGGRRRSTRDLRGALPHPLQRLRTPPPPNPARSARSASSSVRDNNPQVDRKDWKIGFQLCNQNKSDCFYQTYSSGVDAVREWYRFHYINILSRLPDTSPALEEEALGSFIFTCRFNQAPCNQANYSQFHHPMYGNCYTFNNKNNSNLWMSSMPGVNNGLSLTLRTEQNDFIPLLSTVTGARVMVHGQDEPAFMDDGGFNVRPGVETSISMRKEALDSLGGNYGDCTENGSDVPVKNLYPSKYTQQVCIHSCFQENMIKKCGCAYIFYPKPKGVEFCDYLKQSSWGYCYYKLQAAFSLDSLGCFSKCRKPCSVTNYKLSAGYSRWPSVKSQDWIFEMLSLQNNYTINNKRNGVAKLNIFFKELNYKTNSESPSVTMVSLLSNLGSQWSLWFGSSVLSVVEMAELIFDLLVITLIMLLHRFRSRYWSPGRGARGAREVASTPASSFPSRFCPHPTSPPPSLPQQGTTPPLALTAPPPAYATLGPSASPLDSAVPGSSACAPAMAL
T1 sequence (Q9WU38 1-638): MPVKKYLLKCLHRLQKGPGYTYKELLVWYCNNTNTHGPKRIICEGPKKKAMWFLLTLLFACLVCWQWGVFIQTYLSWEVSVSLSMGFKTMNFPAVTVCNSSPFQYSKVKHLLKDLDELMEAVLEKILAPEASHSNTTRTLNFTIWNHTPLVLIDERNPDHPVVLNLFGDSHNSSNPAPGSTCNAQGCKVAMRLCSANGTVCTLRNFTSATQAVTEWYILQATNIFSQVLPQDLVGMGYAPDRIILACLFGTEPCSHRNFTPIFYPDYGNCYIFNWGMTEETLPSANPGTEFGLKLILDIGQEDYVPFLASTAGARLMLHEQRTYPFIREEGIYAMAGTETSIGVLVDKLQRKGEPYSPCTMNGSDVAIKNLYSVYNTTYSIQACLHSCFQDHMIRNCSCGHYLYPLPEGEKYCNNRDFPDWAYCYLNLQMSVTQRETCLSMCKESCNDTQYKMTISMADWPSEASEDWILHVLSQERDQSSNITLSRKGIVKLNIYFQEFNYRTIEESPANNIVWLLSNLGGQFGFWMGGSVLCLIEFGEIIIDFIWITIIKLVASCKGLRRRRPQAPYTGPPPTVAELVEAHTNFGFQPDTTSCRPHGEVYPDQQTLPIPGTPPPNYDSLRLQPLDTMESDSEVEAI
T1 sequence (Q9WU39 1-655): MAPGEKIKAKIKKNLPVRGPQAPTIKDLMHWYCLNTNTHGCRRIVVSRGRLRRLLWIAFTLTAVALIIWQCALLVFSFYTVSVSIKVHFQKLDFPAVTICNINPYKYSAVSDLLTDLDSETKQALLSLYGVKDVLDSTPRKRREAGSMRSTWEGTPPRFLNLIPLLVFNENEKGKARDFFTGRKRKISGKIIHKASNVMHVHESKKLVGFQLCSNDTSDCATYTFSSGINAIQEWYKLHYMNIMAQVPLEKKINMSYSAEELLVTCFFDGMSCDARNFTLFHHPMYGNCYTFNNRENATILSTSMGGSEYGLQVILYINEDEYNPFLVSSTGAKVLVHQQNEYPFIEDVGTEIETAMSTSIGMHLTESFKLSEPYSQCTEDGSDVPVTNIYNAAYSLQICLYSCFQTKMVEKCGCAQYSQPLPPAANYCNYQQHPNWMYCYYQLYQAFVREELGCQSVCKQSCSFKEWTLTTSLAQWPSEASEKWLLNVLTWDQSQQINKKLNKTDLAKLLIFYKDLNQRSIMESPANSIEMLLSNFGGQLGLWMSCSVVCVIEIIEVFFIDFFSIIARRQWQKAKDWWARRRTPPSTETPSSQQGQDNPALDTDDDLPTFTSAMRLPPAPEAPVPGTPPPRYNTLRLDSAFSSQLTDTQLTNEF
The experiment in a line: Ussing Chamber assay: inhibition of amiloride sensitive short circuit current in M-1 cells. Format: cell-based. The conditions noted are these: Mouse kidney M-1 cells on transwell filters, compound added to apical solution, 37° C. The protocol: Mouse kidney M-1 cells were cultivated in DMEM containing 5% FCS and 5 μM dexamethasone for 10 to 12 days on polyester transwell filters. Filters were inserted into a teflon-coated well-plate which fit into the ussing chamber system. Prior to measurement the medium of M-1 cells was replaced with Caco-2 transport buffer (Invitrogen, Germany). During measurements, the Ussing chamber temperature was kept at 37° C. Short circuit currents (I_sc) were measured in the voltage-clamp mode with the software package Lab View for data acquisition and analysis. The transepithelial electrical resistance (TEER) was determined by the application of voltage steps of ±5 mV every 5 sec. Compounds were administered at a final concentration of 3 μM or at increasing concentrations (1-3-10 μM) to the apical solution. At the end of each experiment the amiloride sensitive I_SC was measured by adding 3 μM amiloride to the apical compartment. Results are expressed as inhibition in percent of the amiloride effect or as IC50.
With the example compounds given above, the following IC50 values were determined in the Ussing Chamber assay: […]

A short description of data set [2]: Permeability in CALU-3 cells. Format: in vitro ADME. The following applies: human, CALU-3 cell monolayers, pH 7.4, 37° C., 10 μM compound; for Papp A→B at 90 min, 10 μM: apical-to-basal; for Papp B→A at 90 min, 10 μM: basal-to-apical. As to the method:
Permeability in CALU-3 Cells:
Permeability measurements across polarized, confluent CALU-3 cell monolayers grown on permeable filter supports are used to provide information on the potential of a compound to pass the lung epithelium. Apparent permeability coefficients (Papp) of the compounds across the CALU-3 cell monolayers are measured (pH 7.4, 37° C.) in apical-to-basal (AB) and basal-to-apical (BA) transport direction.
CALU-3 cells (1-2×10^5 cells/1 cm^2 area) are seeded on filter inserts (Costar transwell polycarbonate filters, 0.4 μm pore size) and cultured (for 10-12 days DMEM) until tight monolayers are formed. Compounds of interest are dissolved in appropriate solvent (DMSO, 10 mM stock solution). Stock solutions are diluted with HTP-4 buffer (128.13 mM NaCl, 5.36 mM KCl, 1 mM MgSO4, 1.8 mM CaCl2, 4.17 mM NaHCO3, 1.19 mM Na2HPO4×7H2O, 0.41 mM NaH2PO4×H2O, 15 mM HEPES, 20 mM glucose, 0.25% BSA, pH 7.4) to prepare the transport solutions (10 μM compound, final DMSO<=0.5%). The transport solution (TL) is applied to the apical or basolateral donor side for measuring A-B or B-A permeability (3 filter replicates), respectively. The receiver side contains the same buffer as the donor side. After 30 min of accommodation, samples are collected at the start t0=0 min and at the end of the experiment tn=90 min from the donor and at 0, 30, 60, and 90 min also from the receiver chamber. Volume removed is replenished by HTP-4 buffer. The compound concentration in the samples is measured by HPLC-MS/MS or scintillation counting. The permeability coefficient (Papp) and efflux ratio are calculated according to: Papp [cm/s]=(concentration receiver [nM]*volume receiver [mL]/time interval [sec])*(1/filter area)*(1/donor concentration [nM])
With example compounds given above, the following permeability values were determined in the CALU-3 cells assay: […]

With `CC[n+]1c(CNC(=O)c2nc(Cl)c(N)nc2N)n(CC2CCN(C(=O)COCCOC)CC2)c2cc([O-])ccc21` [Example 6.1], the IC50 (usually the concentration at which inhibition is half-maximal) in data set [1] amounted to 3 nM.

For `CCn1c(CNC(=O)c2nc(Cl)c(N)nc2N)[n+](CCOCCOCCO)c2ccc(O)cc21` [Example 1.2], the IC50 in data set [1] was determined as 1 nM. For the same compound, in data set [2], the apparent permeability from apical to basolateral (Papp A→B) – broadly, how fast a substance crosses the layer from the apical side – at 90 min, 10 μM turned out to be 0.5 ×10⁻⁶ cm/s and the Papp B→A – broadly, the apparent permeability from the basolateral to the apical side of a cell layer – at 90 min, 10 μM stood at 0.3 ×10⁻⁶ cm/s. `CCOP(=O)(O)CCCOc1ccc2c(c1)n(CC)c(CNC(=O)c1nc(Cl)c(N)nc1N)[n+]2CC1CCOCC1` [Example 5.1] returned an IC50 in data set [1] of 8 nM.

On to `CCn1c(CNC(=O)c2nc(Cl)c(N)nc2N)[n+](CCCC#N)c2ccc(OCCCP(=O)(O)O)cc21` [Example 4.1], for which it took 31 nM to reach half-maximal inhibition in data set [1] (IC50). Compound `CCn1c(CNC(=O)c2nc(Cl)c(N)nc2N)[n+](CC2CCOCC2)c2cc(Cl)c(N(CCO)CCO)cc21` [Example 1.1] came in with a 50% inhibitory concentration (IC50) in data set [1] of 13 nM. Take `CCn1c(CNC(=O)c2nc(Br)c(N)nc2N)[n+](CCOCCOCCO)c2ccc(O)cc21.O=C([O-])C(F)(F)F` [Example 2.1]: the half-maximal inhibitory concentration (IC50) in data set [1] amounted to 1 nM. In data set [2], this compound returned a Papp A→B at 90 min, 10 μM of 1.3 ×10⁻⁶ cm/s and a Papp B→A at 90 min, 10 μM of 0.2 ×10⁻⁶ cm/s. The compound `CCNC(=O)COc1ccc2c(c1)n(C1CCN(C(C)=O)CC1)c(CNC(=O)c1nc(Cl)c(N)nc1N)[n+]2CC` [Example 3.1] registered a concentration for half-maximal inhibition (IC50) in data set [1] of 10 nM. This lies in the double-digit nanomolar range. In the case of `C=CC[n+]1c(CNC(=O)c2nc(Br)c(N)nc2N)n(CC)c2cc(OCCCP(=O)(OCC)OCC)ccc21` [Example 2.2], in data set [1], the 50% inhibitory concentration (IC50) worked out at 2 nM.
